pIC50: −log10 of the molar value.

Assay [1] has as its target T1, m-calpain (Rattus norvegicus, UniProt Q07009).
T1 construct: m-calpain was purified from a brain of rat; from tissue; host or cells: rat brain
T1 sequence (Q07009 20-700 limits assumed): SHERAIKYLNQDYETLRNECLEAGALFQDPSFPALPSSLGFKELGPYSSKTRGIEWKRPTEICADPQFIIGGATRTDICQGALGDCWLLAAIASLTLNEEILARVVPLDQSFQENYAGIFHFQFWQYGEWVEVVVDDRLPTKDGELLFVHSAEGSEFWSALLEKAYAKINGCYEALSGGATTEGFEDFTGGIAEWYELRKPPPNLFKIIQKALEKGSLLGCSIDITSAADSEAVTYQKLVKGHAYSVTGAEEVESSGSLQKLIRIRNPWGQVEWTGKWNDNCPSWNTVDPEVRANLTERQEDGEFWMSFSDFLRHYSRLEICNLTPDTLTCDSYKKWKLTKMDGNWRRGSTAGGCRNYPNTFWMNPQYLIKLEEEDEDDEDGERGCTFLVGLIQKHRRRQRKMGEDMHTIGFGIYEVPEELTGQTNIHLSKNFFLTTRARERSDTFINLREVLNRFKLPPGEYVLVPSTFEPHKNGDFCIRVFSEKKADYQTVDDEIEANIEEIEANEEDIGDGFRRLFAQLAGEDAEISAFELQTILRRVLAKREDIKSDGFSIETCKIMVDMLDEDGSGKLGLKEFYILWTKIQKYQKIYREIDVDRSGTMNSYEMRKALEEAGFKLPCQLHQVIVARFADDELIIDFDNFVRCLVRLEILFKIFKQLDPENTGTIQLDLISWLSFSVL
T1 sequence (Q64537 1-270 partner): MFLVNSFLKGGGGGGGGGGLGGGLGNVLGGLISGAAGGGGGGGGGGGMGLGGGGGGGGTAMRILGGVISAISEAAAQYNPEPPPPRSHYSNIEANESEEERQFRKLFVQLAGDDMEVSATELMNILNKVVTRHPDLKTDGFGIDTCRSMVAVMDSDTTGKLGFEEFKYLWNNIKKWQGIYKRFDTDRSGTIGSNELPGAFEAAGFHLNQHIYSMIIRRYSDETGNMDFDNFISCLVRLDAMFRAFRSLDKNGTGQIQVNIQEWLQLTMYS
The assay can be described thus: Measurement of inhibitory activity against thiol protease (m-calpain purified from rat brain). It counts as biochemical. To be noted: m-calpain purified from a brain of rat. As to the method: Measurement of Inhibitory Activity against Thiol Protease
Through the known method disclosed in Journal of Biological Chemistry, vol. 259, page 3210, 1984, m-calpain was purified from a brain of rat. The inhibitory activity against it was measured and determined according to the method disclosed in Journal of Biological Chemistry, vol. 259, page 12489, 1984.

Assay [2] concerns microtubule-associated protein. To be noted: after the brain ischemia; cited from earlier work.
In assay [3] the test system is brain trauma models of rat. Conditions: cited from earlier work.

Turning to `CCCC[C@H](NC(=O)COc1ccccc1)C(=O)CSCc1ccsc1` [17 (No. 86), (S)-3-phenoxyacetylamino-1-(3-thienylmethylthio)-2-heptanone], in assay [1], the negative-log IC50 (pIC50) was 4.91. Still for that read-out and setting: to `CCCC[C@H](NC(=O)COc1cccc(OC)c1)C(=O)CSCc1ccsc1` [18 (No. 87), (S)-3-(3-methoxyphenoxyacetylamino)-1-(3-thienylmethylthio)-2-heptanone] belongs 4.89. As for `CC(C)CCNC(=O)[C@H](CC(C)C)NC(=O)[C@H]1O[C@@H]1C(=O)O` [E-64-C], in assay [2], the “degradation of microtubule-associated protein” value was “inhibits the degradation of microtubule-associated protein after the brain ischemia”. `CC(=O)N[C@@H](CC(C)C)C(=O)N[C@@H](CC(C)C)C(=O)N[C@H](C=O)CCCNC(=N)N` [leupeptin]: the protection of axon entry in assay [3] is listed as “can protect axon”.

`O=C(COc1ccccc1)N[C@@H](Cc1ccccc1)C(=O)CSCc1ccco1` [38 (No. 171), (S)-1-furfurylthio-3-phenoxyacetylamino-4-phenyl-2-butanone]: the pIC50 in assay [1] was 4.77. In turn, `COc1ccc(/C=C/C(=O)N[C@@H](Cc2ccccc2)C(=O)CSCc2ccsc2)c(OC)c1` [60 (No. 219), (S)-3-(2,4-dimethoxycinnamoylamino)-4-phenyl-1-(3-thienylmethylthio)-2-butanone] showed a pIC50 in assay [1] of 4.84. Same read-out and setting: with `COc1cccc(OCC(=O)N[C@@H](Cc2ccccc2)C(=O)CSCc2ccsc2)c1` [58 (No. 216), (S)-3-(3-methoxyphenoxyacetylamino)-4-phenyl-1-(3-thienylmethylthio)-2-butanone] the figure was 5.35.

Usually pIC50 stands for the IC50 on a negative log10 scale, so that one unit is a factor of ten. Low readings indicate a high IC50, high ones a low IC50.

(Values after patent US5424325A, “Aminoketone derivatives” (Mitsubishi Kasei Corporation, priority 1992, dated 1995).)
